Experimental data reported in patent US8802713B2, “3-alkoxy-1-phenylpyrazole derivatives and pesticides” (Kumiai Chemical Industry Co., Ltd., priority 2007, dated 2014).
Like-named read-outs stand apart in the source and are kept apart here.

Columns and labels:
diamondback moth = assay: Insecticidal test on diamondback moth; format: in vivo; settings: Plutella xylostella, 144 h
Experimental: A wettable powder prepared in accordance with Formulation Example 2 was diluted with water to a concentration of an active ingredient of 500 ppm. Cabbage leaves were dipped in this solution and dried in air and then put in a plastic cup having a capacity of 60 mL. 10 second-instar larvae of diamondback moth were released in the cup and the cup was lidded. Then, the cup was placed in a thermostatic chamber at 25° C. for 6 days, and dead moths were counted for calculation of the mortality by Equation 2. The test was carried out by one series system.

brown rice planthopper = assay: Insecticidal test on brown rice planthopper; format: in vivo; settings: 144 h
Experimental: A wettable powder prepared in accordance with Formulation Example 2 was diluted with water to a concentration of an active ingredient of 500 ppm. Rice sprouts were dipped in this solution and put in a plastic cup having a capacity of 60 mL. Ten third-instar larvae of brown rice planthopper were released in the cup, the cup was lidded and placed in a thermostatic chamber at 25° C. for 6 days, and the number of dead larvae were counted for calculation of the mortality by Equation 2. The test was carried out by one series system.

two-spotted spider mites = assay: Miticidal test on two-spotted spider mites (seedling dip); format: in vivo, Tetranvchus urticae; settings: Glycine max, 312 h; 500 ppm active ingredient, soybean seedlings with imago mites dipped, 25° C., 13 days; read-out: protective value
Experimental: A wettable powder prepared in accordance with Formulation Example 2 was diluted with water to a concentration of an active ingredient of 500 ppm. Soybean seedlings which had been inoculated with imago two-spotted spider mites were dipped in the solution and dried in air. The treated soybean seedlings were placed in a thermostatic chamber at 25° C. for 13 days, and the number of live mites were assessed for calculation of the protective value by Equation 1. The test was carried out by one series system.

cotton aphid = assay: Insecticidal test on cotton aphid (seedling dip); format: in vivo; settings: Aphis gossypii, in Cucumis sativus, 72 h
Experimental: A wettable powder prepared in accordance with Formulation Example 2 was diluted with water to a concentration of an active ingredient of 500 ppm. Cucumber seedlings which had been inoculated with larvae of cotton aphid were dipped in this solution and dried in air. The treated cucumber seedlings were placed in a thermostatic chamber at 25° C. for 3 days, and the live insects were counted for calculation of the mortality by Equation 2. The test was carried out by one series system.

## Cc1cc(F)c(-n2nc(OCC(F)(F)C(F)(F)F)c(F)c2N)cc1SCC(F)(F)F [1-41, 5-amino-1-{2-fluoro-4-methyl-5-(2,2,2-trifluoroethylthio)phenyl}-4-fluoro-3-(2,2,3,3,3-pentafluoropropoxy)pyrazole]
Diamondback moth; 500 ppm active ingredient, cabbage leaves dipped, second-instar larvae, 25° C., 6 days, read-out: mortality
  mortality at 500 ppm: ≥ 90%
Brown rice planthopper
  mortality at 500 ppm: ≥ 90%

## Cc1cc(F)c(-n2nc(OCC(F)(F)C(F)(F)F)c(Cl)c2N)cc1SCC(F)(F)F [1-43, 5-amino-4-chloro-1-{2-fluoro-4-methyl-5-(2,2,2-trifluoroethylthio)phenyl}-3-(2,2,3,3,3-pentafluoropropoxy)pyrazole]
Diamondback moth; in Brassica oleracea
  mortality at 500 ppm: ≥ 90%
Brown rice planthopper
  mortality at 500 ppm: ≥ 90%
two-spotted spider mites
  pest or weed control at 500 ppm: ≥ 90%

## Cc1cc(F)c(-n2nc(OCC(F)(F)C(F)(F)F)c(Cl)c2Cl)cc1SCC(F)(F)F [1-111, 1-{2-fluoro-4-methyl-5-(2,2,2-trifluoroethylthio)phenyl}-4,5-dichloro-3-(2,2,3,3,3-pentafluoropropoxy)pyrazole]
Brown rice planthopper
  mortality at 500 ppm: ≥ 90%
two-spotted spider mites
  pest or weed control at 500 ppm: ≥ 90%

## Cc1cc(F)c(-n2nc(OCC(F)(F)C(F)(F)F)cc2C#N)cc1[S+]([O-])CC(F)(F)F (stereo not shown) [1-134, 5-cyano-1-{2-fluoro-4-methyl-5-(2,2,2-trifluoroethylsulfinyl)phenyl}-3-(2,2,3,3,3-pentafluoropropoxy)pyrazole]
Brown rice planthopper
  mortality at 500 ppm: ≥ 90%
two-spotted spider mites
  pest or weed control at 500 ppm: ≥ 90%

## Cc1cc(F)c(-n2nc(OCC(F)(F)C(F)(F)F)cc2C(=O)O)cc1SCC(F)(F)F [1-145, 1-{2-fluoro-4-methyl-5-(2,2,2-trifluoroethylthio)phenyl}-3-(2,2,3,3,3-pentafluoropropoxy)pyrazole-5-carboxylic acid]
Brown rice planthopper
  mortality at 500 ppm: ≥ 90%

## Cc1cc(F)c(-n2nc(OCC(F)(F)C(F)(F)F)cc2C=O)cc1SCC(F)(F)F [1-199, 1-{2-fluoro-4-methyl-5-(2,2,2-trifluoroethylthio)phenyl}-5-formyl-3-(2,2,3,3,3-pentafluoropropoxy)pyrazole]
Diamondback moth; in Brassica oleracea
  mortality at 500 ppm: ≥ 90%
two-spotted spider mites
  pest or weed control at 500 ppm: ≥ 90%

## Cc1cc(F)c(-n2nc(OCC(F)(F)C(F)(F)F)cc2CO)cc1SCC(F)(F)F [1-201, 1-{2-fluoro-4-methyl-5-(2,2,2-trifluoroethylthio)phenyl}-5-hydroxymethyl-3-(2,2,3,3,3-pentafluoropropoxy)pyrazole]
Brown rice planthopper
  mortality at 500 ppm: ≥ 90%
two-spotted spider mites
  pest or weed control at 500 ppm: ≥ 90%

## Cc1cc(F)c(-n2nc(OCCC(F)(F)F)cc2C)cc1SCC(F)(F)F [1-249, 1-{2-fluoro-4-methyl-5-(2,2,2-trifluoroethylthio)phenyl}-5-methyl-3-(3,3,3-trifluoropropoxy)pyrazole]
Brown rice planthopper
  mortality at 500 ppm: ≥ 90%
two-spotted spider mites
  pest or weed control at 500 ppm: ≥ 90%

## Cc1cc(F)c(-n2nc(OCCC(F)(F)F)cc2C)cc1[S+]([O-])CC(F)(F)F (stereo not shown) [1-250, 1-{2-fluoro-4-methyl-5-(2,2,2-trifluoroethylsulfinyl)phenyl}-5-methyl-3-(3,3,3-trifluoropropoxy)pyrazole]
Cotton aphid
  mortality at 500 ppm: ≥ 90%
Brown rice planthopper
  mortality at 500 ppm: ≥ 90%
two-spotted spider mites
  pest or weed control at 500 ppm: ≥ 90%

## Cc1cc(F)c(-n2nc(OC(F)(F)C(F)C(F)(F)F)cc2Cl)cc1SCC(F)(F)F (stereo not shown) [1-253, 5-chloro-1-{2-fluoro-4-methyl-5-(2,2,2-trifluoroethylthio)phenyl}-3-(1,1,2,3,3,3-hexafluoropropoxy)pyrazole]
Cotton aphid
  mortality at 500 ppm: ≥ 90%
Brown rice planthopper
  mortality at 500 ppm: ≥ 90%
two-spotted spider mites
  pest or weed control at 500 ppm: ≥ 90%

## Cc1cc(F)c(-n2nc(OC(F)(F)C(F)C(F)(F)F)cc2Cl)cc1[S+]([O-])CC(F)(F)F (stereo not shown) [1-254, 5-chloro 1-{2-fluoro-4-methyl-5-(2,2,2-trifluoroethylsulfinyl)phenyl}-3-(1,1,2,3,3,3-hexafluoropropoxy)pyrazole]
Cotton aphid
  mortality at 500 ppm: ≥ 90%
Brown rice planthopper
  mortality at 500 ppm: ≥ 90%
two-spotted spider mites
  pest or weed control at 500 ppm: ≥ 90%

## CNc1c(Cl)c(OC(F)(F)C(F)C(F)(F)F)nn1-c1cc(SCC(F)(F)F)c(C)cc1F (stereo not shown) [1-261, 4-chloro-1-{2-fluoro-4-methyl-5-(2,2,2-trifluoroethylthio)phenyl}-3-(1,1,2,3,3,3-hexafluoropropoxy)-5-methylaminopyrazole]
Diamondback moth; in Brassica oleracea
  mortality at 500 ppm: ≥ 90%
Brown rice planthopper
  mortality at 500 ppm: ≥ 90%
two-spotted spider mites
  pest or weed control at 500 ppm: ≥ 90%

## CNc1c(Cl)c(OC(F)(F)C(F)C(F)(F)F)nn1-c1cc([S+]([O-])CC(F)(F)F)c(C)cc1F (stereo not shown) [1-262, 4-chloro-1-{2-fluoro-4-methyl-5-(2,2,2-trifluoroethylsulfinyl)phenyl}-3-(1,1,2,3,3,3-hexafluoropropoxy)-5-methylaminopyrazole]
Diamondback moth; in Brassica oleracea
  mortality at 500 ppm: ≥ 90%
Brown rice planthopper
  mortality at 500 ppm: ≥ 90%
two-spotted spider mites
  pest or weed control at 500 ppm: ≥ 90%

## Cc1cc(F)c(-n2nc(OC(F)(F)C(F)C(F)(F)F)c(Cl)c2N)cc1SCC(F)(F)F (stereo not shown) [1-263, 5-amino-4-chloro-1-{2-fluoro-4-methyl-5-(2,2,2-trifluoroethylthio)phenyl}-3-(1,1,2,3,3,3-hexafluoropropoxy)pyrazole]
Diamondback moth; in Brassica oleracea
  mortality at 500 ppm: ≥ 90%
Brown rice planthopper
  mortality at 500 ppm: ≥ 90%
two-spotted spider mites
  pest or weed control at 500 ppm: ≥ 90%

## Cc1cc(F)c(-n2nc(OC(F)(F)C(F)C(F)(F)F)c(Cl)c2N)cc1[S+]([O-])CC(F)(F)F (stereo not shown) [1-264, 5-amino-4-chloro 1-{2-fluoro-4-methyl-5-(2,2,2-trifluoroethylsulfinyl)phenyl}-3-(1,1,2,3,3,3-hexafluoropropoxy)pyrazole]
Diamondback moth; in Brassica oleracea
  mortality at 500 ppm: ≥ 90%
Brown rice planthopper
  mortality at 500 ppm: ≥ 90%
two-spotted spider mites
  pest or weed control at 500 ppm: ≥ 90%

## Cc1cc(F)c(-n2cc(Cl)c(OC(F)(F)C(F)OC(F)(F)F)n2)cc1SCC(F)(F)F (stereo not shown) [1-289, 4-chloro-1-{2-fluoro-4-methyl-5-(2,2,2-trifluoroethylthio)phenyl}-3-{1,1,2-trifluoro-2-(trifluoromethoxy)ethoxy}pyrazole]
Brown rice planthopper
  mortality at 500 ppm: ≥ 90%
two-spotted spider mites
  pest or weed control at 500 ppm: ≥ 90%

## Cc1cc(F)c(-n2cc(Cl)c(OC(F)(F)C(F)OC(F)(F)F)n2)cc1[S+]([O-])CC(F)(F)F (stereo not shown) [1-290, 4-chloro-1-{2-fluoro-4-methyl-5-(2,2,2-trifluoroethylsulfinyl)phenyl}-3-{1,1,2-trifluoro-2-(trifluoromethoxy)ethoxy}pyrazole]
Brown rice planthopper
  mortality at 500 ppm: ≥ 90%
two-spotted spider mites
  pest or weed control at 500 ppm: ≥ 90%

## Cc1cc(F)c(-n2nc(OC(F)(F)C(F)OC(F)(F)F)c(Cl)c2Cl)cc1SCC(F)(F)F (stereo not shown) [1-291, 4,5-dichloro-1-{2-fluoro-4-methyl-5-(2,2,2-trifluoroethylthio)phenyl}-3-{1,1,2-trifluoro-2-(trifluoromethoxy)ethoxy}pyrazole]
Diamondback moth; in Brassica oleracea
  mortality at 500 ppm: ≥ 90%
Brown rice planthopper
  mortality at 500 ppm: ≥ 90%
two-spotted spider mites
  pest or weed control at 500 ppm: ≥ 90%

## Cc1cc(F)c(-n2nc(OC(F)(F)C(F)OC(F)(F)F)c(Cl)c2Cl)cc1[S+]([O-])CC(F)(F)F (stereo not shown) [1-292, 4,5-dichloro-1-{2-fluoro-4-methyl-5-(2,2,2-trifluoroethylsulfinyl)phenyl}-3-{1,1,2-trifluoro-2-(trifluoromethoxy)ethoxy}pyrazole]
Diamondback moth; in Brassica oleracea
  mortality at 500 ppm: ≥ 90%
Brown rice planthopper
  mortality at 500 ppm: ≥ 90%
two-spotted spider mites
  pest or weed control at 500 ppm: ≥ 90%

## Cc1cc(F)c(-n2nc(OC(F)(F)C(F)OC(F)(F)F)cc2C#N)cc1[S+]([O-])CC(F)(F)F (stereo not shown) [1-669, 5-cyano-1-{2-fluoro-4-methyl-5-(2,2,2-trifluoroethylsulfinyl)phenyl}-3-{1,1,2-trifluoro-2-(trifluoromethoxy)ethoxy}pyrazole]
Brown rice planthopper
  mortality at 500 ppm: ≥ 90%
two-spotted spider mites
  pest or weed control at 500 ppm: ≥ 90%

## Cc1cc(F)c(-n2nc(OC(F)(F)C(F)OC(F)(F)F)cc2C(F)F)cc1[S+]([O-])CC(F)(F)F (stereo not shown) [1-1532, 5-difluoromethyl-1-{2-fluoro-4-methyl-5-(2,2,2-trifluoroethylsulfinyl)phenyl}-3-{1,1,2-trifluoro-2-(trifluoromethoxy)ethoxy}pyrazole]
Brown rice planthopper
  mortality at 500 ppm: ≥ 90%
two-spotted spider mites
  pest or weed control at 500 ppm: ≥ 90%

## Cc1cc(F)c(-n2ccc(Oc3ccc(C(F)(F)F)cc3)n2)cc1[S+]([O-])CC(F)(F)F (stereo not shown) [1-1586, 1-{2-fluoro-4-methyl-5-(2,2,2-trifluoroethylsulfinyl)phenyl}-3-{4-(trifluoromethyl)phenoxy}pyrazole]
Brown rice planthopper
  mortality at 500 ppm: ≥ 90%
two-spotted spider mites
  pest or weed control at 500 ppm: ≥ 90%

## Cc1cc(F)c(-n2cc(C#N)c(OC(F)(F)C(F)OC(F)(F)F)n2)cc1[S+]([O-])CC(F)(F)F (stereo not shown) [1-1588, 4-cyano-1-{2-fluoro-4-methyl-5-(2,2,2-trifluoroethylsulfinyl)phenyl}-3-{1,1,2-trifluoro-2-(trifluoromethoxy)ethoxy}pyrazole]
two-spotted spider mites
  pest or weed control at 500 ppm: ≥ 90%

## Cc1cc(F)c(-n2ccc(C(F)(F)F)n2)cc1SCC(F)(F)F [V-613, reference compound]
Cotton aphid
  mortality at 500 ppm: 0%
